From patent US20250204515A1, “Heparanase Inhibition for Graft Protection” (University of Pittsburgh - Of the Commonwealth System of …, priority 2022, published 2025)
Entries after “also recorded” stand apart in the source; their conditions may differ.

Experiments:
[1] = system: HPSE1, MMP2, IL-6, IL-1β, TNF-α mRNA; IκB-α; test: Real-time RT-PCR and western blotting in rat lung tissue after 4 hours of EVLP
Method: (§1) Graft tissues collected after 4 hours of EVLP and 2 hours after reperfusion were examined for relative mRNA expression levels of interleukin (IL)-6, IL-1, tumor necrosis factor (TNF)-α, and glyceraldehyde-3-phosphate dehydrogenase (GAPDH). Gene expression levels were normalized to GAPDH mRNA levels.
Western blotting: Total isolated proteins were extracted/resolved by 10% SDS-PAGE followed by transfer to 0.2 μm nitrocellulose membranes (Bio-Rad Laboratories, Hercules, CA, USA). Membranes were blocked with 5% non-fat milk at room temperature for 2 hours and then incubated overnight at 4° C. with the following primary antibodies: inhibitor of KB-α (IκB-α; #9242, Cell Signaling Technology, Inc., Danvers, MA) and β-actin (#A1978, Millipore-Sigma). Membranes were then incubated with either goat anti-mouse IgG (H+L) (#31430, Thermo Fisher Scientific Inc.; 1:5000) or goat anti-rabbit IgG (H+L) (#31460, Thermo Fisher Scientific Inc.; 1:3000) horseradish peroxidase-conjugated polyclonal secondary antibodies at room temperature for 2 hours. Proteins were visualized using an enhanced chemiluminescence kit (Abcam), and protein bands were imaged and analyzed using Image Lab software (Version 6.0; Bio-Rad Laboratories, Inc., Hercules, CA). The intensities of protein bands were quantitated by Image J software (National Institutes of Health, Bethesda, MD).

heparanase (HPSE) = test: In vitro β-D-glucuronidase activity assay (4-MUG substrate)
Method: In vitro β-D-glucuronidase activity assay Heparanase activity was measured via β-Glucuronidase activity assay using 4-methylumbelliferyl-β-D-glucuronide (4-MUG) substrate (Millipore-Sigma). As a source of enzymes, platelet rich plasma (PRP) obtained from rat whole blood or rat lung whole tissue lysate, was used. […] Fluorescence (λex 360 nm/λem 460 nm) was continuously measured for 60 minutes using a fluorescence microplate reader (BioTech Synergy HTX, Agilent Technologies, Santa Clara, CA).

MMP-2 = test: Gelatin zymography of EVLP perfusate, inhibitors in perfusate; design: species or system rat; settings: 4 hours EVLP, vs SF4 and control groups
Method: Gelatin zymography: Gelatin zymography was performed to measure secreted MMP-2 and MMP-9 activities in EVLP perfusate. Briefly, 20 μl of perfusate was mixed with 2×SDS sample buffer then loaded onto a 10% polyacrylamide gel containing 0.1% SDS and […]. After protein separation by electrophoresis, the gel was washed in renaturing buffer (Novex™ Invitrogen™) at room temperature, and then incubated in developing buffer (Novex™ Invitrogen™) overnight at 37° C. The next day, the gel was stained with Coomassie Brilliant Blue R-250 (Bio-Rad) and imaged (ChemiDoc, Bio-Rad). Enzyme activity, visualized as clear bands against the dark blue background, was quantified using Image-J (NIH).

rat lung grafts = test: Rat orthotopic left lung transplantation following EVLP; assay type: in vivo; settings: 2 hours after transplant following 4 hours of EVLP
Method: Rat orthotopic left lung transplantation following EVLP: Orthotopic, single-lung transplantation of the left lung was performed using the 3-cuff method. After EVLP for 4 hours, the lungs were cooled with 4° C. Perfadex on the EVLP system and stored at 4° C. for 1 hour prior to transplantation. The recipient animals were sacrificed 2 hours after reperfusion. When analyzing graft function, the native lung was clamped, 100% 02 was administered for 5 minutes through a ventilator, and the recipient's blood was sampled from the graft pulmonary vein for blood gas analysis.
as §1
Tissue staining and histopathological analysis: Formalin-fixed, paraffin-embedded lung tissues collected 2 hours after transplantation were sectioned to 4 μm thickness and stained with hematoxylin and eosin. In parallel, sections of tissue collected after 4 hours of EVLP were stained for immunofluorescence imaging using primary antibodies for syndecan-1 (DL-101) (#sc-12765, Santa Cruz) and caveolin-1 (#3238, Cell Signaling Technology, Danvers, MA) and with Hoechst 33342 dye (Thermo Scientific). Donkey Cy3-conjugated anti-mouse IgG (#AP192C, MilliporeSigma, Burlington, MA) and Cy5-conjugated goat anti-rabbit IgG (#A10523, Thermo Scientific) secondary antibodies were used to detect primary antibodies. Stained slides were scanned with a whole-slide image scanner (Axio Scan.Z1; Carl Zeiss AB, Oberkochen, Germany) and analyzed with digital image processing software (ZEN lite blue edition; Carl Zeiss).

[2] = system: human lung microvascular endothelial cells (HLMVECs); test: In-vitro cellular toxicity test for HPSE inhibitor candidates
Method: In-vitro cellular toxicity test for HPSE Inhibitor candidates: Human lung microvascular endothelial cells (HLMVECs) were obtained from the American Type Culture Collection (Rockville, MD, USA). Cells were cultured in a humidified incubator at 37° C. and 5% CO2 and grown in endothelial growth medium (EGM™-2 Endothelial Cell Growth Medium-2, Lonza, Basel, Switzerland) supplemented with 2% heat-inactivated fetal bovine serum and 0.04% hydrocortisone. Cell media was replaced every 48 hours, and the cells were split upon 80-90% confluence.
Final tested concentrations of HPSE inhibitors were calculated based upon repeatable in vitro dose-response studies. After 24 hours incubation, cell viability was confirmed by Trypan blue exclusion assay. Total mRNA was isolated using Trizol (Thermo Fisher Scientific Inc., Waltham, MA) and relative messenger RNA (mRNA) expression levels of hemeoxygenase-1 (HO-1), interleukin (IL)-6, tumor necrosis factor (TNF)-α, monocyte chemoattractant protein (MCP)-1, B-cell lymphoma 2 Associated X (Bax), B-cell lymphoma 2 (Bcl-2), B-cell lymphoma-extra-large (Bcl-xL) were quantified by SYBR Green 2-step, real-time, reverse transcription-polymerase chain reaction (RT-PCR). Relative gene expression levels were normalized to mRNA expression of glyceraldehyde-3-phosphate dehydrogenase (GAPDH) and compared to relative mRNA expression levels in control-treated HLMVEC.

HPSE = HPSE activity assay in rat lung tissue after 4 hours of EVLP; settings: after 4-hours EVLP; heparin 1000-U/hour or SF4 1 μM in perfusate
Method: HPSE activity assay. HPSE activity was measured via a β-glucuronidase activity assay using 4-methylumbelliferyl-β-D-glucuronide (4-MUG) substrate (Millipore-Sigma). Briefly, after 4 hours of EVLP, lung tissues were homogenized in cold PBS. […] Fluorescence (λex 360 nm/λem 460 nm) was continuously measured for 60 minutes using a fluorescence microplate reader (BioTech Synergy HTX, Agilent Technologies, Santa Clara, CA).

Q: Which “IL-1β mRNA expression” value ([1]; lung tissue after 4-hours EVLP) does the source give for heparin here?
A: Its value is “increased”.

Q: And the “IL-6 mRNA expression” value ([1]; lung tissue after 4-hours EVLP)?
A: Its value is “increased”.

Q: And the “TNF-α mRNA expression” value ([1]; lung tissue after 4-hours EVLP)?
A: The value was “increased”.

Q: What about the pro-MMP2 gene expression ([1]; lung tissue after 4 hours of EVLP) of the same substance?
A: Its pro-MMP2 gene expression is “further upregulated”.

Q: And the “HPSE1 mRNA expression” value ([1]; lung tissue after 4 hours of EVLP, vs sham)?
A: The value was “not altered”.

Q: What about the “inhibition of HPSE in vitro, compared with SF4” value (heparanase (HPSE); in vitro data) of the same substance?
A: Its value is “not as effective as SF4”.

Q: What about the “β-D-glucuronidase activity, dose response” value (heparanase (HPSE); in vitro, FIG. 8) of the same substance?
A: Its value is “increased in a dose-dependent manner”.

Q: And the “MMP-2 activity in EVLP perfusate” value (MMP-2)?
A: The value was “significantly elevated”.

Q: What about the “H&E histology of grafts” value (rat lung grafts) of the same substance?
A: Its value is “swollen alveolar walls, congestion in the blood vessels, and fluid leaks into the alveolar space”.

Q: What about the “post-transplant lung function (P/F ratio)” value (rat lung grafts) of the same substance?
A: Its value is “significantly lower”.

Q: What about the “toxicity against HLMVECs (endothelial cell cultures)” value [2] of the same substance?
A: The value was “safe”.

Q: What about the “HPSE activity in the lungs” value (HPSE) of the same substance?
A: Its value is “partially inhibited; also recorded: not sufficiently nor significantly inhibited”.
